This is an account of results in patent US11203613B2, “Peptidomimetic proteasome inhibitors” (CORNELL UNIVERSITY, priority 2017, dated 2021).

Several values for one entry are separate records, joined by “and”; a condition that tells them apart may be missing. Equal values may be shown once. Bounds are passed on as bounds.

The target in the first experiment is Mtb20SOG (Mycobacterium tuberculosis, UniProt P9WHT9). As to the kind of experiment: biochemical.
Chain of Mtb20SOG (P9WHT9 58-291): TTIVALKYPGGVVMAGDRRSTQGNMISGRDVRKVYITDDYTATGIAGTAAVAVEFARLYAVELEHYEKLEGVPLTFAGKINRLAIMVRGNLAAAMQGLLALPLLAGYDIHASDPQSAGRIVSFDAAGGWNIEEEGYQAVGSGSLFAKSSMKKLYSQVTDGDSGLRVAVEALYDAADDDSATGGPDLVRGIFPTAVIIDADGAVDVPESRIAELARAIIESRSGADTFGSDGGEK
Conditions: not given
As for `Cc1cc(C(=O)N[C@@H](CC(=O)N2CCC[C@@H]2c2ccccc2)C(=O)N[C@@H](C)c2ncc(-c3ccccc3F)[nH]2)no1` [CF-503108], the IC50 worked out at 0.013 µM.
Same read-out and setting: for `CC(C)CCC(=O)N[C@@H](CC(=O)N1CCC[C@@H]1c1ccccc1)C(=O)N[C@@H](C)c1nc2ccccc2[nH]1` [CF-503150] the value was 0.047 µM and 0.045 µM and 0.05 µM and 0.069 µM and 0.059 µM and 0.042 µM; for `C[C@H](NC(=O)[C@H](CC(=O)N1CCCC1)NC(=O)CCc1ccccc1)C(=O)NCc1cccc2cn[nH]c12` [CF-503390], 0.121 µM and 0.088 µM.

For the next experiment, the target named is Human Constitutive (Hu C-20S) β5 Active Subunit (Homo sapiens, UniProt P28074). The experiment can be described thus: IC50 determination, human constitutive 20S proteasome β5c (suc-LLVY-AMC hydrolysis). The class given is biochemical. The note with it: Table 2; several values in a cell are repeat determinations; read-out: Hu c-20S IC50.
With `CC[C@H]1CCCCN1C(=O)C[C@H](NC(=O)CCC(C)(C)C)C(=O)N[C@@H](C)c1nc2ccccc2[nH]1` [CF-503217], the IC50 is 6.85 µM and 8.99 µM.
Still for that read-out and setting: as for `CCC1CCCCN1C(=O)CC(NC(=O)CCC(C)C)C(=O)NC1CCCC1c1ncc(-c2ccc(F)cc2F)[nH]1` (centres unmarked) [CF-503292], the figure is 4.95 µM and 9.23 µM and 8.19 µM and 8.6 µM; as for `C[C@H](NC(=O)[C@H](CC(=O)N1CCCC1)NC(=O)CCc1ccccc1)C(=O)NCc1cccc2cc[nH]c12` [CF-503293], 4.06 µM and 11.6 µM and 19.1 µM and 36.7 µM.

Still in this experiment, the particulars now being: Table 3; IC50 against human constitutive β5 active subunit; read-out: Hu-C20S β5.
Regarding `C[C@H](NC(=O)[C@H](CC(=O)N1CCCC[C@@H]1C)NCC(=O)c1ccccc1)c1ncc(-c2ccc(F)cc2F)[nH]1` [CEN-103, (S)—N—((S)-1-(5-(2,4-Difluorophenyl)-1H-imidazol-2-yl)ethyl)-4-((S)-2-methylpiperidin-1-yl)-4-oxo-2-((2-oxo-2-phenylethyl)amino)butanamide], the IC50 was 15.2 µM.
For `CC(C)CS(=O)(=O)N[C@@H](CC(=O)N1CCCC[C@@H]1C)C(=O)N[C@@H](C)c1ncc(-c2ccc(F)cc2F)[nH]1` [CEN-104, (S)—N—((S)-1-(5-(2,4-Difluorophenyl)-1H-imidazol-2-yl)ethyl)-4-((S)-2-methylpiperidin-1-yl)-2-((2-methylpropyl)sulfonamido)-4-oxobutanamide], the IC50 amounted to 4.9 µM.
Consider `Cc1ncc(C(=O)N[C@@H](CC(=O)N2CCCC[C@@H]2C)C(=O)N[C@@H](C)c2ncc(-c3ccc(F)cc3F)[nH]2)s1` [CEN-105, N—((S)-1-(((S)-1-(5-(2,4-Difluorophenyl)-1H-imidazol-2-yl)ethyl)amino)-4-((S)-2-methylpiperidin-1-yl)-1,4-dioxobutan-2-yl)-2-methylthiazole-5-carboxamide], for which the IC50 is 3.9 µM.
The same measure, in the same setting: as for `C[C@H](NC(=O)[C@H](CC(=O)N1CCCC[C@@H]1C)NC(=O)CC1CCOCC1)c1ncc(-c2ccc(F)cc2F)[nH]1` [CEN-106, (S)—N—((S)-1-(5-(2,4-Difluorophenyl)-1H-imidazol-2-yl)ethyl)-4-((S)-2-methylpiperidin-1-yl)-4-oxo-2-(2-(tetrahydro-2H-pyran-4-yl)acetamido)butanamide], the figure is 12.8 µM; as for `CC(C)CCC(=O)N[C@@H](CC(=O)N1CCCCC1C(C)C)C(=O)N[C@@H](C)c1ncc(-c2ccc(F)cc2F)[nH]1` (stereo partly drawn) [CEN-107, N-((2S)-1-(((S)-1-(5-(2,4-Difluorophenyl)-1H-imidazol-2-yl)ethyl)amino)-4-(2-isopropylpiperidin-1-yl)-1,4-dioxobutan-2-yl)-4-methylpentanamide], 2.8 µM; as for `C[C@H](NC(=O)[C@H](CC(=O)N1CCCC[C@@H]1C)NS(=O)(=O)CCC1CC1)c1ncc(-c2ccc(F)cc2F)[nH]1` [CEN-108, (S)-2-((2-Cyclopropylethyl)sulfonamido)-N—((S)-1-(5-(2,4-difluorophenyl)-1H-imidazol-2-yl)ethyl)-4-((S)-2-methylpiperidin-1-yl)-4-oxobutanamide], 6.2 µM.
Turning to `C[C@H](NC(=O)[C@H](CC(=O)N1CCCC[C@@H]1C)Nc1nc2ccccc2o1)c1ncc(-c2ccc(F)cc2F)[nH]1` [CEN-109, (S)-2-(Benzo[d]oxazol-2-ylamino)-N—((S)-1-(5-(2,4-difluorophenyl)-1H-imidazol-2-yl)ethyl)-4-((S)-2-methylpiperidin-1-yl)-4-oxobutanamide], the IC50 stood at 7.3 µM.
The same measure, in the same setting: for `C[C@H](NC(=O)[C@H](CC(=O)N1CCCC[C@@H]1C)NS(=O)(=O)c1ccccc1)c1ncc(-c2ccc(F)cc2F)[nH]1` [CEN-110, (S)—N—((S)-1-(5-(2,4-Difluorophenyl)-1H-imidazol-2-yl)ethyl)-4-((S)-2-methylpiperidin-1-yl)-4-oxo-2-(phenylsulfonamido)butanamide] the value was 8.1 µM; for `CC(C)CCC(=O)N[C@@H](CC(=O)N1CCCC[C@@H]1C(F)(F)F)C(=O)N[C@@H](C)c1ncc(-c2ccc(F)cc2F)[nH]1` [CEN-111, N—((S)-1-(((S)-1-(5-(2,4-Difluorophenyl)-1H-imidazol-2-yl)ethyl)amino)-1,4-dioxo-4-((R)-2-(trifluoromethyl)piperidin-1-yl)butan-2-yl)-4-methylpentanamide], 4.9 µM.
The same measure, in the same setting: as for `C[C@H](NC(=O)[C@H](CC(=O)N1CCCC[C@@H]1C)NS(=O)(=O)Cc1ccccc1)c1ncc(-c2ccc(F)cc2F)[nH]1` [CEN-112, (S)—N—((S)-1-(5-(2,4-Difluorophenyl)-1H-imidazol-2-yl)ethyl)-4-((S)-2-methylpiperidin-1-yl)-4-oxo-2-((phenylmethyl)sulfonamido)butanamide], the figure is 6.1 µM.
Still for that read-out and setting: as for `Cc1ccc(S(=O)(=O)N[C@@H](CC(=O)N2CCCC[C@@H]2C)C(=O)N[C@@H](C)c2ncc(-c3ccc(F)cc3F)[nH]2)cc1` [CEN-113, (S)—N—((S)-1-(5-(2,4-Difluorophenyl)-1H-imidazol-2-yl)ethyl)-2-((4-methylphenyl)sulfonamido)-4-((S)-2-methylpiperidin-1-yl)-4-oxobutanamide], the figure is 6.5 µM; as for `CC(C)CCS(=O)(=O)N[C@@H](CC(=O)N1CCCC[C@@H]1C)C(=O)N[C@@H](C)c1ncc(-c2ccc(F)cc2F)[nH]1` [CEN-114, (S)—N—((S)-1-(5-(2,4-Difluorophenyl)-1H-imidazol-2-yl)ethyl)-2-((3-methylbutyl)sulfonamido)-4-((S)-2-methylpiperidin-1-yl)-4-oxobutanamide], 9.7 µM; as for `Cc1cc(C(=O)N[C@@H](CC(=O)N2CCC[C@@H]2c2ccccc2)C(=O)N[C@@H](C)c2ncc(-c3ccc(F)cc3F)[nH]2)no1` [CEN-115, N—((S)-1-(((S)-1-(5-(2,4-Difluorophenyl)-1H-imidazol-2-yl)ethyl)amino)-1,4-dioxo-4-((R)-2-phenylpyrrolidin-1-yl)butan-2-yl)-5-methylisoxazole-3-carboxamide], above 100 µM.
With `Cc1cc(C(=O)N[C@@H](CC(=O)N2CCCC[C@@H]2C)C(=O)N[C@@H](C)c2ncc(-c3ccccc3)[nH]2)no1` [CEN-116, 5-Methyl-N—((S)-4-((S)-2-methylpiperidin-1-yl)-1,4-dioxo-1-(((S)-1-(5-phenyl-1H-imidazol-2-yl)ethyl)amino)butan-2-yl)isoxazole-3-carboxamide], the IC50 came out at 9.5 µM.
Still for that read-out and setting: as for `Cc1cc(C(=O)N[C@@H](CC(=O)N2CCCCC2C)C(=O)N[C@@H](C)c2ncc(-c3ccccc3)[nH]2)no1` (stereo partly drawn) [CEN-117, 5-Methyl-N-((2S)-4-(2-methylpiperidin-1-yl)-1,4-dioxo-1-(((S)-1-(5-phenyl-1H-imidazol-2-yl)ethyl)amino)butan-2-yl)isoxazole-3-carboxamide], the figure is 11 µM; as for `Cc1cc(C(=O)N[C@@H](CC(=O)N2CCCC[C@@H]2C)C(=O)N[C@@H](C)c2ncc(-c3ccccc3F)[nH]2)no1` [CEN-118, N—((S)-1-(((S)-1-(5-(2-Fluorophenyl)-1H-imidazol-2-yl)ethyl)amino)-4-((S)-2-methylpiperidin-1-yl)-1,4-dioxobutan-2-yl)-5-methylisoxazole-3-carboxamide], 15.8 µM; as for `Cc1cc(C(=O)N[C@@H](CC(=O)N2CCCC[C@@H]2C)C(=O)N[C@@H](C)c2ncc(-c3ccc(F)cc3)[nH]2)no1` [CEN-119, N—((S)-1-(((S)-1-(5-(4-Fluorophenyl)-1H-imidazol-2-yl)ethyl)amino)-4-((S)-2-methylpiperidin-1-yl)-1,4-dioxobutan-2-yl)-5-methylisoxazole-3-carboxamide], 18 µM.
The same measure, in the same setting: for `Cc1cc(C(=O)N[C@@H](CC(=O)N2CCC[C@@H]2c2ccccc2)C(=O)N[C@@H](C)c2ncc(-c3ccccc3)[nH]2)no1` [CEN-120, N—((S)-1,4-Dioxo-1-(((S)-1-(5-phenyl-1H-imidazol-2-yl)ethyl)amino)-4-((R)-2-phenylpyrrolidin-1-yl)butan-2-yl)-5-methylisoxazole-3-carboxamide] the value was above 100 µM.
On to `C[C@H](NC(=O)[C@H](CC(=O)N1CCC[C@@H]1c1ccccc1)NC(=O)CC1CC1)c1ncc(Cc2ccccc2)[nH]1` [CEN-121, (S)—N—((S)-1-(5-Benzyl-1H-imidazol-2-yl)ethyl)-2-(2-cyclopropylacetamido)-4-oxo-4-((R)-2-phenylpyrrolidin-1-yl)butanamide], for which the IC50 came to 10.6 µM.
Same read-out and setting: for `C[C@H](NC(=O)[C@H](CC(=O)N1CCCC[C@@H]1C)NC(=O)CC1CCOCC1)c1ncc(Cc2ccccc2)[nH]1` [CEN-122, (S)—N—((S)-1-(5-Benzyl-1H-imidazol-2-yl)ethyl)-4-((S)-2-methylpiperidin-1-yl)-4-oxo-2-(2-(tetrahydro-2H-pyran-4-yl)acetamido)butanamide] the value was 13.5 µM.
The same measure, in the same setting: as for `Cc1cc(C(=O)N[C@@H](CC(=O)N2CCC[C@@H]2c2ccccc2)C(=O)N[C@@H](C)c2ncc(Cc3ccccc3)[nH]2)no1` [CEN-123, N—((S)-1-(((S)-1-(5-Benzyl-1H-imidazol-2-yl)ethyl)amino)-1,4-dioxo-4-((R)-2-phenylpyrrolidin-1-yl)butan-2-yl)-5-methylisoxazole-3-carboxamide], the figure is 7.4 µM.
The same measure, in the same setting: as for `C[C@H](NC(=O)[C@H](CC(=O)N1CCCC[C@@H]1C)NC(=O)CC1CC1)c1ncc(Cc2ccccc2)[nH]1` [CEN-124, (S)—N—((S)-1-(5-Benzyl-1H-imidazol-2-yl)ethyl)-2-(2-cyclopropylacetamido)-4-((S)-2-methylpiperidin-1-yl)-4-oxobutanamide], the figure is 10.4 µM.
With `C[C@H](NC(=O)[C@H](CC(=O)N1CCC[C@@H]1c1ccccc1)Nc1nc2ccccc2o1)c1ncc(-c2ccccc2F)[nH]1` [CEN-125, (S)-2-(benzo[d]oxazol-2-ylamino)-N—((S)-1-(5-(2-fluorophenyl)-1H-imidazol-2-yl)ethyl)-4-oxo-4-((R)-2-phenylpyrrolidin-1-yl)butanamide], the IC50 amounted to 20.6 µM.
